In general, pEC50 refers to the negative decadic logarithm of the EC50, by convention in mol/L.

This passage reports EC50 results from US8796466B2, “Hepatitis C virus inhibitors” (Bristol-Myers Squibb Company, priority 2009, dated 2014).

Each structure is given as a SMILES string. pEC50: −log10 of the molar value. Like-named read-outs stand apart in the source and are kept apart here.

The experiment deals with HCV 1b genotype. In words: HCV Replicon assay (HCV 1b genotype). Format: cell-based, Hepatitis C virus. The following applies: Hepatitis C virus, HCV 1b genotype replicon. Put shortly: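 HCV-neo replicon cells, wild-type plus lines carrying NS5A-region mutations, were exposed to compound; luciferase-reporter replicon variants were also used.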
(In general: A replicon is a self-replicating genome or part of one, used to study replication in cells.)

[1] abbreviates: class symbol, read-out: Range (EC50 values against HCV 1b).
[2] abbreviates: Effective 50% inhibitory concentration, read-out: 1b EC50.

For the compound `COC(=O)N[C@H](C(=O)N1C[C@@H](C)C[C@H]1c1nc(-c2ccc(C#Cc3ccc(-c4[nH]c([C@@H]5C[C@H](C)CN5C(=O)[C@@H](NC(=O)OC)C5CCOCC5)nc4Cl)cc3)cc2)c[nH]1)C1CCOCC1` [Example M12.6, methyl ((1S)-2-((2S,4S)-2-(4-(4-((4-(4-chloro-2-((2S,4S)-1-((2S)-2-((methoxycarbonyl)amino)-2-(tetrahydro-2H-pyran-4-yl)acetyl)-4-methyl-2-pyrrolidinyl)-1H-imidazol-5-yl)phenyl)ethynyl)phenyl)-1H-imidazol-2-yl)-4-methyl-1-pyrrolidinyl)-2-oxo-1-(tetrahydro-2H-pyran-4-yl)ethyl)carbamate], the pEC50 under setting [1] is 10.00 to 11.70.

`COC(=O)N[C@H](C(=O)N1C[C@@H](C)C[C@H]1c1nc(Cl)c(-c2ccc(C#Cc3ccc(-c4[nH]c([C@@H]5C[C@H](C)CN5C(=O)[C@@H](NC(=O)OC)C5CCOCC5)nc4Cl)cc3)cc2)[nH]1)C1CCOCC1` [Example M12.7, dimethyl (1,2-ethynediylbis(4,1-phenylene(4-chloro-1H-imidazole-5,2-diyl)((2S,4S)-4-methyl-2,1-pyrrolidinediyl)((1S)-2-oxo-1-(tetrahydro-2H-pyran-4-yl)-2,1-ethanediyl)))biscarbamate]: the pEC50 under setting [2] was 10.21 and the negative logarithm of the EC50 (pEC50) under setting [1] was 10.00 to 11.70.

As to `COC(=O)N[C@H](C(=O)N1C[C@@H](C)C[C@H]1c1ncc(-c2ccc(C#Cc3ccc(-c4cnc([C@@H]5C[C@H](C)CN5C(=O)[C@@H](NC(=O)OC)C5CCOCC5)[nH]4)cc3)cc2)[nH]1)C(C)C` [Example M12.8, methyl ((1S)-2-((2S,4S)-2-(4-(4-((4-(2-((2S,4S)-1-((2S)-2-((methoxycarbonyl)amino)-3-methylbutanoyl)-4-methyl-2-pyrrolidinyl)-1H-imidazol-4-yl)phenyl)ethynyl)phenyl)-1H-imidazol-2-yl)-4-methyl-1-pyrrolidinyl)-2-oxo-1-(tetrahydro-2H-pyran-4-yl)ethyl)carbamate], the pEC50 under setting [1] was 10.00 to 11.70.

As for `COC(=O)N[C@H](C(=O)N1[C@H]2C[C@@]2(C)C[C@H]1c1ncc(-c2ccc(C#Cc3ccc(-c4cnc([C@@H]5C[C@]6(C)C[C@@H]6N5C(=O)[C@@H](NC(=O)OC)C(C)C)[nH]4)cc3)cc2)[nH]1)C(C)C` [Example M12.9, methyl ((1S)-1-(((1S,3S,5S)-3-(4-(4-((4-(2-((1S,3S,5S)-2-((2S)-2-((methoxycarbonyl)amino)-3-methylbutanoyl)-5-methyl-2-azabicyclo[3.1.0]hex-3-yl)-1H-imidazol-4-yl)phenyl)ethynyl)phenyl)-1H-imidazol-2-yl)-5-methyl-2-azabicyclo[3.1.0]hex-2-yl)carbonyl)-2-methylpropyl)carbamate], the pEC50 under setting [1] is 10.00 to 11.70.

On to `COC(=O)N[C@H](C(=O)N1[C@@H]2C[C@@H]2C[C@H]1c1ncc(-c2ccc(/C=C/c3ccc(-c4cnc([C@@H]5C[C@H]6C[C@H]6N5C(=O)[C@@H](NC(=O)OC)C(C)C)[nH]4)cc3)cc2)[nH]1)C(C)C` [Example M13, methyl ((1S)-1-(((1R,3S,5R)-3-(4-(4-((E)-2-(4-(2-((1R,3S,5R)-2-((2S)-2-((methoxycarbonyl)amino)-3-methylbutanoyl)-2-azabicyclo[3.1.0]hex-3-yl)-1H-imidazol-4-yl)phenyl)vinyl)phenyl)-1H-imidazol-2-yl)-2-azabicyclo[3.1.0]hex-2-yl)carbonyl)-2-methylpropyl)carbamate], for which the negative-log EC50 (pEC50) under setting [1] was 10.00 to 11.70.

As to `COC(=O)N[C@H](C(=O)N1[C@@H]2C[C@@H]2C[C@H]1c1nc(-c2ccc(/C=C/c3ccc(-c4c[nH]c([C@@H]5C[C@H]6C[C@H]6N5C(=O)[C@@H](NC(=O)OC)C5CCOCC5)n4)cc3)cc2)c[nH]1)C1CCOCC1` [Example M14, dimethyl ((E)-1,2-ethenediylbis(4,1-phenylene-1H-imidazole-4,2-diyl(1R,3S,5R)-2-azabicyclo[3.1.0]hexane-3,2-diyl((1S)-2-oxo-1-(tetrahydro-2H-pyran-4-yl)-2,1-ethanediyl)))biscarbamate], the pEC50 is 10.77 under setting [2] and 10.00 to 11.70 under setting [1].

As to `COC(=O)N[C@H](C(=O)N1[C@@H]2C[C@@H]2C[C@H]1c1nc(-c2ccc(/C=C/c3ccc(-c4c[nH]c([C@@H]5C[C@H]6C[C@H]6N5C(=O)[C@@H](NC(=O)OC)C5CCOCC5)n4)cc3)cc2)c[nH]1)C(C)C` [Example M15, methyl ((1S)-2-((1R,3S,5R)-3-(4-(4-((E)-2-(4-(2-((1R,3S,5R)-2-((2S)-2-((methoxycarbonyl)amino)-3-methylbutanoyl)-2-azabicyclo[3.1.0]hex-3-yl)-1H-imidazol-4-yl)phenyl)vinyl)phenyl)-1H-imidazol-2-yl)-2-azabicyclo[3.1.0]hex-2-yl)-2-oxo-1-(tetrahydro-2H-pyran-4-yl)ethyl)carbamate], the negative logarithm of the EC50 (pEC50) under setting [1] is 10.00 to 11.70.

On to `COC(=O)N[C@H](C(=O)N1CC(F)(F)C[C@H]1c1nc(-c2ccc(C#Cc3ccc(-c4c[nH]c([C@@H]5CC(F)(F)CN5C(=O)[C@@H](NC(=O)OC)C(C)C)n4)cc3)cc2)c[nH]1)C(C)C` [Example N1, methyl ((1S)-1-(((2S)-2-(4-(4-((4-(2-((2S)-4,4-difluoro-1-((2S)-2-((methoxycarbonyl)amino)-3-methylbutanoyl)-2-pyrrolidinyl)-1H-imidazol-4-yl)phenyl)ethynyl)phenyl)-1H-imidazol-2-yl)-4,4-difluoro-1-pyrrolidinyl)carbonyl)-2-methylpropyl)carbamate], for which, under setting [1], the negative logarithm of the EC50 (pEC50) was 10.00 to 11.70.

As to `COC(=O)N[C@H](C(=O)N1CC(F)(F)C[C@H]1c1ncc(-c2ccc(C#Cc3ccc(-c4cnc([C@@H]5CC(F)(F)CN5C(=O)[C@@H](NC(=O)OC)C5CCOCC5)[nH]4)cc3)cc2)[nH]1)C1CCOCC1` [Example N2, dimethyl (ethyne-1,2-diylbis(4,1-phenylene-1H-imidazole-5,2-diyl((2S)-4,4-difluoropyrrolidine-2,1-diyl)((1S)-2-oxo-1-(tetrahydro-2H-pyran-4-yl)ethane-2,1-diyl)))biscarbamate], the negative logarithm of the EC50 (pEC50) under setting [1] was 10.00 to 11.70.

In the case of `COC(=O)N[C@H](C(=O)N1CC(F)(F)C[C@H]1c1ncc(-c2ccc(C#Cc3ccc(-c4cnc([C@@H]5CC(F)(F)CN5C(=O)[C@H](NC(=O)OC)C5CCOCC5)[nH]4)cc3)cc2)[nH]1)C1CCOCC1` [Example N3, methyl ((1R)-2-((2S)-2-(5-(4-((4-(2-((2S)-4,4-difluoro-1-((2S)-2-((methoxycarbonyl)amino)-2-(tetrahydro-2H-pyran-4-yl)acetyl)pyrrolidin-2-yl)-1H-imidazol-5-yl)phenyl)ethynyl)phenyl)-1H-imidazol-2-yl)-4,4-difluoropyrrolidin-1-yl)-2-oxo-1-(tetrahydro-2H-pyran-4-yl)ethyl)carbamate], the negative logarithm of the EC50 (pEC50) is 9.60 under setting [2] and 6.46 to 8.00 under setting [1].

Turning to `COC(=O)N[C@@H](C(=O)N1CC(F)(F)C[C@H]1c1ncc(-c2ccc(C#Cc3ccc(-c4cnc([C@@H]5CC(F)(F)CN5C(=O)[C@H](NC(=O)OC)C5CCOCC5)[nH]4)cc3)cc2)[nH]1)C1CCOCC1` [Example N4, dimethyl (ethyne-1,2-diylbis(4,1-phenylene-1H-imidazole-5,2-diyl((2S)-4,4-difluoropyrrolidine-2,1-diyl)((1R)-2-oxo-1-(tetrahydro-2H-pyran-4-yl)ethane-2,1-diyl)))biscarbamate], the pEC50 was 9.74 under setting [2] and 6.46 to 8.00 under setting [1].

With `COC(=O)N[C@H](C(=O)N1CCCC[C@H]1c1ncc(-c2ccc(C#Cc3ccc(-c4cnc([C@@H]5CCCCN5C(=O)[C@@H](NC(=O)OC)C(C)C)[nH]4)cc3)cc2)[nH]1)C(C)C` [Example N6, methyl ((1S)-1-(((2S)-2-(4-(4-((4-(2-((2S)-1-((2S)-2-((methoxycarbonyl)amino)-3-methylbutanoyl)-2-piperidinyl)-1H-imidazol-4-yl)phenyl)ethynyl)phenyl)-1H-imidazol-2-yl)-1-piperidinyl)carbonyl)-2-methylpropyl)carbamate], the pEC50 under setting [1] was 6.46 to 8.00.

Consider `COC(=O)N[C@H](C(=O)N1C[C@@H](O)C[C@H]1c1ncc(-c2ccc(C#Cc3ccc(-c4cnc([C@@H]5C[C@H](O)CN5C(=O)[C@@H](NC(=O)OC)C(C)C)[nH]4)cc3)cc2)[nH]1)C(C)C` [Example N7, methyl ((1S)-1-(((2S,4S)-4-hydroxy-2-(4-(4-((4-(2-((2S,4S)-4-hydroxy-1-((2S)-2-((methoxycarbonyl)amino)-3-methylbutanoyl)-2-pyrrolidinyl)-1H-imidazol-4-yl)phenyl)ethynyl)phenyl)-1H-imidazol-2-yl)-1-pyrrolidinyl)carbonyl)-2-methylpropyl)carbamate], for which the pEC50 under setting [1] is 10.00 to 11.70.

Turning to `COC(=O)N[C@H](C(=O)N1[C@H](c2ncc(-c3ccc(C#Cc4ccc(-c5cnc([C@@H]6C[C@@H]7C[C@@H]7N6C(=O)[C@@H](NC(=O)OC)C(C)C)[nH]5)cc4)cc3)[nH]2)C[C@@H]2C[C@@H]21)C(C)C` [Example N8, methyl((1S)-1-(((1S,3S,5S)-3-(4-(4-((4-(2-((1S,3S,5S)-2-((2S)-2-((methoxycarbonyl)amino)-3-methylbutanoyl)-2-azabicyclo[3.1.0]hex-3-yl)-1H-imidazol-4-yl)phenyl)ethynyl)phenyl)-1H-imidazol-2-yl)-2-azabicyclo[3.1.0]hex-2-yl)carbonyl)-2-methylpropyl)carbamate], the pEC50 under setting [1] was 6.46 to 8.00.

For `COC(=O)N[C@H](C(=O)N1[C@H](c2ncc(-c3ccc(C#Cc4ccc(-c5cnc([C@@H]6C[C@@H]7C[C@@H]7N6C(=O)[C@@H](NC(=O)OC)C6CCOCC6)[nH]5)cc4)cc3)[nH]2)C[C@@H]2C[C@@H]21)C1CCOCC1` [Example N9, dimethyl (1,2-ethynediylbis(4,1-phenylene-1H-imidazole-4,2-diyl(1S,3S,5S)-2-azabicyclo[3.1.0]hexane-3,2-diyl((1S)-2-oxo-1-(tetrahydro-2H-pyran-4-yl)-2,1-ethanediyl)))biscarbamate], the negative-log EC50 (pEC50) under setting [1] is 10.00 to 11.70.

As to `CN(C)[C@@H](C(=O)N1CCC[C@H]1c1ncc(-c2ccc(Oc3ccc(-c4cnc([C@@H]5CCCN5C(=O)[C@@H](c5ccccc5)N(C)C)[nH]4)cc3)cc2)[nH]1)c1ccccc1` [OL-1, (1R)-2-((2S)-2-(4-(4-(4-(2-((2S)-1-((2R)-2-(dimethylamino)-2-phenylacetyl)-2-pyrrolidinyl)-1H-imidazol-5-yl)phenoxy)phenyl)-1H-imidazol-2-yl)-1-pyrrolidinyl)-N,N-dimethyl-2-oxo-1-phenylethanamine], the pEC50 under setting [1] was 8.00 to 9.00.
